Data from PMC11609934, “Exploration and characterization of the antimalarial activity of cyclopropyl carboxamides that target the mitochondrial protein, cytochrome b” (European Journal of Medicinal Chemistry, 2024).
Read-outs that look alike come from different tables or passages of the source.

Key:
Rat hepatocyte stability = type: in vitro ADME; settings: pooled rat hepatocytes
Experimental: Rat Hepatocyte Stability. A solution of the test compound in Krebs-Henseliet buffer solution (1 μM) was incubated in pooled rat hepatocytes (1 × 10^6 cells/mL) for 0, 15,30,45, 60, 75 and 90 min at 37 °C (5 % CO2, 95 % relative humidity). The reaction was terminated with the addition of ice-cold acetonitrile containing system suitability standard at designated time points. […] The experiment was carried out in duplicate. Diltiazem, 7-ethoxy coumarin, propranolol, and midazolam were used as reference standards.

[1] = test system: W499-resistant populations; assay: microbe, parasite or virus in culture; type: cell-based, Plasmodium falciparum; settings: for EC50: Plasmodium falciparum
Description: To confirm if W466 (1) and W499 (2) may have the same molecular target, W466 (1) and W499 (2) were each evaluated for cross resistance against their respective resistant populations from the pulsed forward genetic study (Fig. 2).

Pf SB1-A6 strain = assay: Asexual stage assay, SB1-A6 strain; type: cell-based; settings: Plasmodium falciparum, 72 h, read-out: SB1-A6 EC50 (SD)
Experimental: (§1) DHODH is essential for the function of the mitochondria ETC and pyrimidine biosynthesis. Compounds that inhibit cyt b typically have reduced activity against parasite strains with increased DHODH levels. To support evidence that the cyclopropyl carboxamide series impacts the mitochondrial ETC, selected analogs were evaluated against both the SB1-A6 strain that has a 2-fold amplification and a C276F SNP in PfDHODH [24] and a Dd2 strain that expresses Saccharomyces cerevisiae DHODH (ScDHODH). ScDHODH has low sequence homology to PfDHODH and is ubiquinone-independent in that it uses fumarate instead of mitochondrial coenzyme Q as an electron acceptor and therefore compounds that inhibit the Plasmodium mitochondrial ETC have reduced activity against the ScDHODH parasite strain.
(§2) Cyt b Resistant and ScDHODH Asexual Stage Assays. These assays were conducted as previously described. Briefly, asexual parasite strains indicated in Table 12 were incubated with compound in a dose response format for 72 h. Parasitemia was determined using SYBR-green fluorescence measured by flow cytometry (Thermo Fisher Attune). EC50 values were determined as described for the LDH assay.

[2] = test system: Pf Dd2 expressing ScDHODH; assay: ScDHODH asexual stage assay; type: cell-based; settings: Plasmodium falciparum, DD2, 72 h, read-out: Dd2 ScDHODH EC50 (SD)
Experimental: as §1, §2

mitochondrial ETC = assay: P. falciparum oxygen consumption rate (OCR) assay (Seahorse XFe96); type: cell-based, Plasmodium falciparum; settings: compounds 5 μM
Experimental: To provide further evidence to support the cyclopropyl carboxamide series targeting cyt b, an oxygen consumption rate (OCR) assay was performed using a Seahorse XFe96 Flux Analyzer. The primary role of the mitochondria ETC is to produce ATP oxidative phosphorylation, and thus the oxygen consumption directly quantifies mitochondrial ETC activity. In this assay, malate, which is a substrate of malate quinone dehydrogenase (MQD), was added to provide a base line of oxygen consumption at approximately 50 pmol/min (Fig. 4). […] Finally, NaN3 was added to inhibit complex IV to bring the OCR back to basal levels.
Fig. 4 P. falciparum oxygen consumption rate (OCR) assay. Data represent the means and SDs of 3 technical replicates. Time points and reagent injections were as follows, 1. First 5 timepoints measured the basal level of malate-dependent OCR; 2. Compounds (5 μM) were injected independently (indicated by arrow), and OCR measured for 8-timepoints; 3. TMPD (a cytochrome c electron donor) was injected, and OCR measured for 5 time points; 4. NaN3 (a complex IV inhibitor) was then added, and OCR measured for 5 time points.
ETC Biosensor Assay. This assay was performed as previously described. Briefly, 3 × 10^8 trophozoite infected RBCs were purified using the SuperMACS II separator (Miltenyi Biotec, Germany). The trophozoite-stage parasites were released from erythrocytes by treating them with 0.05 % (w/v) pre-warmed saponin in phosphate-buffered saline (PBS) at 37 °C for 3 min. The cells were washed with pre-warmed PBS, three times. […] The cells were measured for oxygen consumption rate (OCR) using Seahorse XFe96 flux analyzer (Agilent). The OCR was assessed for five cycles of 20 s mixing, 1 min waiting, 2.5 min measuring to establish baseline OCR before any substrate injections, for eight cycles of 20 s mixing, 1 min waiting followed by 2.5 min measuring after inhibitor injection from port A and for five cycles of 20 s mixing 1 min waiting, 2.5 min measuring after TMPD, and NaN3, injections.

3D7 P. falciparum strain = assay: Parasite reduction ratio (PRR) assay; type: cell-based, Plasmodium falciparum; settings: 10 times the EC50, up to 120 h
Experimental: The parasite reduction ratio (PRR) assay is a benchmark assay used to determine the speed of kill of antimalarials at an early stage of development. […] After 28 days of incubation, parasite growth is measured using an LDH assay.
Parasite Reduction Ratio Assay. This is a platform assay conducted by TGC Lifesciences using a previously described protocol. […] Parasites were treated up to 120 h. Drug was renewed every 24 h over the entire treatment period (as directed). Samples of parasites were taken from the treated culture every 24 h (24, 48, 72, 96 and 120 h time points), drug was washed out and drug-free parasites were cultured in 96 well plates. To quantify number of viable parasites after treatment, serial dilutions were performed with the above-mentioned compounds after washing out the compound. Parasites were cultured in microtiter plates to allow all wells with viable parasites, to render detectable parasitaemia. After 22 days of culturing, cultured plates were checked for parasite growth. Final sampling was done after 28 days to confirm growth/no growth. The parasite levels were determined using a LDH assay as follows. A culture of parasitized red blood cells (RBC) of strain 3D7 with 0.25 % parasitaemia and 2 % haematocrit in RPMI-1640, 0.5 % albumax and 150 μM hypoxanthine is exposed to 3-fold serial dilutions of the compound. […]

Row | SMILES | hepatocyte CLint at 1 μM (Rat hepatocyte stability) [µL/min/1e6 cells] | fold shift in EC50 against W499-resistant populations compared to wildtype 3D7 [1] | EC50 ([1]; read-out: W499-resistant population #2 EC50) [µM] | EC50 ([1]; read-out: W499-resistant population #3 EC50) [µM] | EC50 (Pf SB1-A6 strain) [µM] | EC50 [2] [µM] | effect on malate-dependent oxygen consumption rate (OCR) (mitochondrial ETC) | rate of kill in PRR assay (3D7 P. falciparum strain)
1 | O=C(NC1CC1)c1ccc(CN(Cc2ccc(Cl)cc2Cl)C2CC2)cc1 [W499 (2)] | > 92 | 1.6–1.9 fold | 0.206 | 0.177 | > 10 | > 10 | reduced the OCR to the same level as ATQ | moderate to slow rate of kill
2 | CCCN(Cc1ccc(C(=O)NC2CC2)cc1)Cc1ccc(C(F)(F)F)cc1 [WJM280 (108), N-Cyclopropyl-4-((propyl(4-(trifluoromethyl)benzyl)amino)methyl)benzamide] | > 92 | – | – | – | > 10 | > 10 | – | –
